Results published in US11547697B2, “Heterocyclic compounds and uses thereof” (MILLENNIUM PHARMACEUTICALS, INC., priority 2009, dated 2023).
Where two headings read alike, the source gives them in different places.

Columns and labels:
[1] = target: p110γ (Homo sapiens (Human), UniProt P48736); assay: PI 3-Kinase (human) HTRF assay, p110γ; format: biochemical
[2] = target: p110α/p85α (Homo sapiens (Human), UniProt P42336); assay: PI 3-Kinase (human) HTRF assay, p110α/p85α; format: biochemical
[3] = tested on: tumor cells with a PI3Kα mutation (e.g., MDA-MB-361 and T47D); assay: Proliferation of tumor cells with PI3Kα mutation; format: cell-based; details: Homo sapiens
[4] = target: p110δ/p85α (Homo sapiens (Human), UniProt O00329); assay: PI 3-Kinase (human) HTRF assay, p110δ/p85α; format: biochemical
[5] = target: p110β/p85α (Homo sapiens (Human), UniProt P42338); assay: PI 3-Kinase (human) HTRF assay, p110β/p85α; format: biochemical
[6] = T47D cells, read-out: T47D proliferation
[7] = PC3, read-out: PC3 proliferation In Vitro IC50
[8] = in vitro, read-out: PI3K γ IC50
[9] = in vitro, read-out: PI3K α IC50
[10] = T47D cells, read-out: T47D proliferation IC50
[11] = in vitro, read-out: PI3K β IC50

p110α/p85α, sequence (P42336 whole entry): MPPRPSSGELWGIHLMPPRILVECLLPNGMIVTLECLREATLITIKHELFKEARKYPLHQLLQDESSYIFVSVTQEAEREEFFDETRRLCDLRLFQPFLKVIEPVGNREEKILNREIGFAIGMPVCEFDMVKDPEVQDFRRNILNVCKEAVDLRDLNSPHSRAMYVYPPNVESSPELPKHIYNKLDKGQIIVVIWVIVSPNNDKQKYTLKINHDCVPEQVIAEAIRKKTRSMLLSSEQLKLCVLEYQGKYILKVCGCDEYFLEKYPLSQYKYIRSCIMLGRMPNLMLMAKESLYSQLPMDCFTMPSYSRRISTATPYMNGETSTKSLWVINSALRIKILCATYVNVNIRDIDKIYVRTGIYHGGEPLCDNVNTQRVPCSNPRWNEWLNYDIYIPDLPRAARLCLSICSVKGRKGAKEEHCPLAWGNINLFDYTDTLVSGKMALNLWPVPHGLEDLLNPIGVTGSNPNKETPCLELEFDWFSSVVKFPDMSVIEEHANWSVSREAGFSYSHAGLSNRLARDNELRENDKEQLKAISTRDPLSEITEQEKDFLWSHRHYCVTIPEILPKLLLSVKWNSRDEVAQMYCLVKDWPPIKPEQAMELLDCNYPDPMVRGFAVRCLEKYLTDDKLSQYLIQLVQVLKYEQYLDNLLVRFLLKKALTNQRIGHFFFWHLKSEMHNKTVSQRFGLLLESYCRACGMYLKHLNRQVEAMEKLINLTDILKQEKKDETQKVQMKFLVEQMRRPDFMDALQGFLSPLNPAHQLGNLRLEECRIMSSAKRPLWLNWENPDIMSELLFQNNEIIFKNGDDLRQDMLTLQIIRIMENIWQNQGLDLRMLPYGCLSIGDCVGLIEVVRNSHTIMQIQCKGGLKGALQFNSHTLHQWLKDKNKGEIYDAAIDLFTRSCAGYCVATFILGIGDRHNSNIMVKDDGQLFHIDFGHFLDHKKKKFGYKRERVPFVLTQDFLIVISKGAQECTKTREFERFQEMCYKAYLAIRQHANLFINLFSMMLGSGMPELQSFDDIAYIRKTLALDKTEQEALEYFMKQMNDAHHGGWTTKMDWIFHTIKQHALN
p110α/p85α, sequence (P27986 whole entry partner): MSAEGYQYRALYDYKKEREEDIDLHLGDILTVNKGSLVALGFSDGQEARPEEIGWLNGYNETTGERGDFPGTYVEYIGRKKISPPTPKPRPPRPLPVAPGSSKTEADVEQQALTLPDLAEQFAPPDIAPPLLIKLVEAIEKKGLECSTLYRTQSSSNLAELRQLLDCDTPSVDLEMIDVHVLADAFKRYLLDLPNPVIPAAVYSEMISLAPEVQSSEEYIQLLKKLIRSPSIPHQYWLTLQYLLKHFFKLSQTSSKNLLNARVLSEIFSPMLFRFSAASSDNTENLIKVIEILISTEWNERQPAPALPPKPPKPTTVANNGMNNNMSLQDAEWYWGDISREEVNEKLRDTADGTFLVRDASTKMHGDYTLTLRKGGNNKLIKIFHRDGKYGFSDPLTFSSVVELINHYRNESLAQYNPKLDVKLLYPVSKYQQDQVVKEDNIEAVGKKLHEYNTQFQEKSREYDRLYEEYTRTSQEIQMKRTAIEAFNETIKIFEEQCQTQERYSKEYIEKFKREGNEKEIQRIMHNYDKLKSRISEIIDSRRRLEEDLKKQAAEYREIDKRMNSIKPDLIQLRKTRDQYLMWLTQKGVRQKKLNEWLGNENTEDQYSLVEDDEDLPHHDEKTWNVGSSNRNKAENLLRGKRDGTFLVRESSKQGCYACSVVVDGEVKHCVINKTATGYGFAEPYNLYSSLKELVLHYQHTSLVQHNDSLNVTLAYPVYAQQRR
p110γ, sequence (P48736 whole entry): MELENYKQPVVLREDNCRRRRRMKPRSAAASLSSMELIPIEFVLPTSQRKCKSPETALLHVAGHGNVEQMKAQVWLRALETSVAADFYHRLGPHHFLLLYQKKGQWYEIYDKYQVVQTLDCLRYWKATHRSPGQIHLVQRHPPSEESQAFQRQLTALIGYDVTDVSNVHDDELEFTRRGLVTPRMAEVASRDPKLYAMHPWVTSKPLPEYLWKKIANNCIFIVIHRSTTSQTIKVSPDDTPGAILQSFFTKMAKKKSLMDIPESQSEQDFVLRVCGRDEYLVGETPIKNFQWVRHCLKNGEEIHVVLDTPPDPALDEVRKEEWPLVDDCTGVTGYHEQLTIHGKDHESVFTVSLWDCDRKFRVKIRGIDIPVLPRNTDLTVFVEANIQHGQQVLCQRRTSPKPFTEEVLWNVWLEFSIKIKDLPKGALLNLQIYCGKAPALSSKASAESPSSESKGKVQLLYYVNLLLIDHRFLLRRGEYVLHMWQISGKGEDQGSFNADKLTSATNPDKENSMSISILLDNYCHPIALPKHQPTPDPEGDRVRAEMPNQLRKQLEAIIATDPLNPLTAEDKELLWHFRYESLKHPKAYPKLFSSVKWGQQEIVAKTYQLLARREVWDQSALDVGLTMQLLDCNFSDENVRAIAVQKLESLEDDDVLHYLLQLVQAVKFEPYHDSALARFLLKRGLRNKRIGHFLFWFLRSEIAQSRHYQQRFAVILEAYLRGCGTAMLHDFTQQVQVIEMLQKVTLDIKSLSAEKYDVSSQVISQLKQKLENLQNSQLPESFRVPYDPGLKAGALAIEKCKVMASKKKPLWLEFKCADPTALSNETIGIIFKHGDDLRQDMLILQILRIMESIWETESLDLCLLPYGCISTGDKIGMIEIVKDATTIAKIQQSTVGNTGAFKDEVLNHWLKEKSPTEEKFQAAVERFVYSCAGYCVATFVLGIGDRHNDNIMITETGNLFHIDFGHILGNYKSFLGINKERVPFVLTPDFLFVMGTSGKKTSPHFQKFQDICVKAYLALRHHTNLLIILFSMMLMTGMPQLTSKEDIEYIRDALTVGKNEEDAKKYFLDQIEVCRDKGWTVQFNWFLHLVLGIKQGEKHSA
p110δ/p85α, sequence (O00329 whole entry): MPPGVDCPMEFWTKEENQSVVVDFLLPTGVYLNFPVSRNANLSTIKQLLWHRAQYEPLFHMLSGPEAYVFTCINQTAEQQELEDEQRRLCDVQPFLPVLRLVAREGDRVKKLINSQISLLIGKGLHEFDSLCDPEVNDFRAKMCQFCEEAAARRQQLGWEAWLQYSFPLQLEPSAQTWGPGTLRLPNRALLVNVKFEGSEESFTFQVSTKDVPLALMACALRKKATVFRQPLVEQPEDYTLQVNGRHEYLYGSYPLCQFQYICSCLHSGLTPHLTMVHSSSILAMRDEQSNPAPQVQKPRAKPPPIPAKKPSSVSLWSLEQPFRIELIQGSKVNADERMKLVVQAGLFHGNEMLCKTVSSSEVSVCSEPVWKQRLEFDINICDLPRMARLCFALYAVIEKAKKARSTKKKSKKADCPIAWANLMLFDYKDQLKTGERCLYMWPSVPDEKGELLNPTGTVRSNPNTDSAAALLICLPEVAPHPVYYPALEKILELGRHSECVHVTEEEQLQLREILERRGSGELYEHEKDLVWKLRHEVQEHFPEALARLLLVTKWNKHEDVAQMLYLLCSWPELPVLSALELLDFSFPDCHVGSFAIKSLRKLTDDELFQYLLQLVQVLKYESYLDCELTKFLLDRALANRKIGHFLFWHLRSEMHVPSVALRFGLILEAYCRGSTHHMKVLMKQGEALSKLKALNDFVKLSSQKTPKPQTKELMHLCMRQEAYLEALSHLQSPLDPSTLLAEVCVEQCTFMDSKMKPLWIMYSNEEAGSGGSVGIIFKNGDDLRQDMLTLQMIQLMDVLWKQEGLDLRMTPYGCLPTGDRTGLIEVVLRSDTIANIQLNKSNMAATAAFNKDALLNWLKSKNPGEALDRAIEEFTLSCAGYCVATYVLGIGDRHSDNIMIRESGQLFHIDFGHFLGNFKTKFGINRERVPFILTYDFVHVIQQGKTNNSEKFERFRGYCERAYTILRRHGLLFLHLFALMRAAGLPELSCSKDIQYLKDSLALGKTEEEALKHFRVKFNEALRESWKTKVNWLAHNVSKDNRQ
p110δ/p85α, sequence (P27986 whole entry partner): as the sequence (P27986 whole entry partner) above
p110β/p85α, sequence (P42338 whole entry): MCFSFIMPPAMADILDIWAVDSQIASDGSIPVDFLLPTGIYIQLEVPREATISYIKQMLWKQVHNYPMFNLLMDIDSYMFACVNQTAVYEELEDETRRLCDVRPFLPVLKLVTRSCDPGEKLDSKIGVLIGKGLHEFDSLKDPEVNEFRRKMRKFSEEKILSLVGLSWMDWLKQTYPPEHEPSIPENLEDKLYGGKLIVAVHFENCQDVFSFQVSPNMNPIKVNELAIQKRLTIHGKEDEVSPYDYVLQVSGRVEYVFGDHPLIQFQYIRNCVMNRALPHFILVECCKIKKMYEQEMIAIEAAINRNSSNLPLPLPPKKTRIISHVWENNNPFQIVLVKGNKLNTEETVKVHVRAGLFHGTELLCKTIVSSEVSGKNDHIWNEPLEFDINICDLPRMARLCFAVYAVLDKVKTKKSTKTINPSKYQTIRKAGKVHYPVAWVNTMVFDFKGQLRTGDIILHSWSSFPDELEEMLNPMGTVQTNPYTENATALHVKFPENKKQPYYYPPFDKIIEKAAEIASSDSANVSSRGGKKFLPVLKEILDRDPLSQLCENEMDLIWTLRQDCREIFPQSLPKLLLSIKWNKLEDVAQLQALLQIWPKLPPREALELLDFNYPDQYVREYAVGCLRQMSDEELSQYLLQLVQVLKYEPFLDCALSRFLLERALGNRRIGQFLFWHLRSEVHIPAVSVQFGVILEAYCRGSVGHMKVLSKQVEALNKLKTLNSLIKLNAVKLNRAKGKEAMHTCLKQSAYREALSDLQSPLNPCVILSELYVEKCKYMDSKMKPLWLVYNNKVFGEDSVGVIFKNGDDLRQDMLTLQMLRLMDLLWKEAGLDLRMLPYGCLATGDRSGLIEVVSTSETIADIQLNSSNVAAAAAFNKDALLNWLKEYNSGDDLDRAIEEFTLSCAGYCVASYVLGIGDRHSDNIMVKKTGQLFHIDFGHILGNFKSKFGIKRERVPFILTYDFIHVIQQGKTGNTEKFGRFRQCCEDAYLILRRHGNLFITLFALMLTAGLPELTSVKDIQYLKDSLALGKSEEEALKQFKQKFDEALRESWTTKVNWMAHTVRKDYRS
p110β/p85α, sequence (P27986 whole entry partner): as the sequence (P27986 whole entry partner) above

Compound	IC50 ([1]; read-out: PI3K γ IC50)	IC50 ([2]; read-out: PI3K α IC50)	IC50 [3, 6]	IC50 ([5]; read-out: PI3K β IC50)	further results
Nc1nc2cc(-c3ccc4ncc(-c5cnn(CCO)c5)nc4c3)ccc2o1 [compound 108]	< 0.1 µM	< 0.1 µM	< 1 µM	< 10 µM	
CC(=O)N1CCN(C(=O)c2cnc3ccc(-c4ccc5oc(N)nc5c4)cn23)CC1 [compound 113]	< 1 µM	< 0.1 µM	< 10 µM		
Nc1nc2cc(-c3ccc4ncc(C(=O)N5CCC(F)(F)C5)n4c3)ccc2o1 [compound 471]					IC50 ([1]; read-out: PI3K γ In Vitro IC50): < 0.1 µM; IC50 ([2]; read-out: PI3K α In Vitro IC50): < 0.1 µM; IC50 [3, 7]: < 10 µM
NC(=O)[C@@H]1CCCN1C(=O)C1CN(c2cnc3ccc(-c4ccc5oc(N)nc5c4)cc3n2)C1 [compound 283]					IC50 [1, 8]: < 1 µM; IC50 [2, 9]: < 0.1 µM; IC50 [3, 10]: < 10 µM
Nc1nc2cc(-c3ccc4ncc(N5CCOCC5)nc4c3)ccc2s1 [compound 116]	< 1 µM	< 0.1 µM	< 1 µM	< 1 µM	
CC1CN(C(=O)c2cnc3ccc(-c4ccc5oc(N)nc5c4)cn23)CCO1 (stereo not shown) [compound 201]					IC50 [1, 8]: < 10 µM; IC50 [2, 9]: < 0.1 µM; IC50 [3, 10]: < 10 µM; IC50 [5, 11]: < 10 µM
Nc1nc2cc(-c3ccc4ncc(C(=O)N5CCN(CCO)CC5)n4c3)ccc2o1 [compound 148]	< 10 µM	< 0.1 µM	< 10 µM		
C[C@H]1COCCN1C(=O)c1cnc2ccc(-c3ccc4oc(N)nc4c3)cn12 [compound 483]					IC50 ([1]; read-out: PI3K γ In Vitro IC50): < 10 µM; IC50 ([2]; read-out: PI3K α In Vitro IC50): < 0.1 µM; IC50 [3, 7]: < 10 µM; IC50 ([5]; read-out: PI3K β In Vitro IC50): < 10 µM
Nc1nc2cc(-c3ccc4ncc(N5CCN(C6CC6)CC5)nc4c3)ccc2o1 [compound 261]					IC50 [1, 8]: < 1 µM; IC50 [2, 9]: < 0.1 µM; IC50 [3, 10]: < 10 µM; IC50 [5, 11]: < 1 µM
Nc1nc2ccc(-c3ccc4ncc(N5CCOCC5)nc4c3)cc2o1 [compound 117]	< 1 µM	< 0.1 µM	< 10 µM	< 1 µM	
CN1CCN(c2cnc3ccc(-c4ccc5nc(N)sc5c4)cc3n2)CC1 [compound 115]	< 10 µM	< 0.1 µM	< 10 µM	< 0.1 µM	
CO[C@@H]1CCN(C(=O)c2cnc3ccc(-c4ccc5oc(N)nc5c4)cn23)C1 [compound 464]					IC50 ([1]; read-out: PI3K γ In Vitro IC50): < 1 µM; IC50 ([2]; read-out: PI3K α In Vitro IC50): < 0.1 µM; IC50 [3, 7]: < 10 µM
NC(=O)[C@@H]1CCCN1c1cnc2ccc(-c3ccc4oc(N)nc4c3)cc2n1 [compound 257]					IC50 [2, 9]: < 0.1 µM; IC50 [3, 10]: < 10 µM
Nc1nc2cc(-c3ccc4ncc(C(=O)N5CC(F)(F)C5)n4c3)ccc2o1 [compound 473]					IC50 ([1]; read-out: PI3K γ In Vitro IC50): < 0.1 µM; IC50 ([2]; read-out: PI3K α In Vitro IC50): < 0.1 µM; IC50 [3, 7]: < 1 µM
CO[C@H]1CCN(C(=O)c2cnc3ccc(-c4ccc5oc(N)nc5c4)cn23)C1 [compound 463]					IC50 ([1]; read-out: PI3K γ In Vitro IC50): < 1 µM; IC50 ([2]; read-out: PI3K α In Vitro IC50): < 0.1 µM; IC50 ([5]; read-out: PI3K β In Vitro IC50): < 10 µM; IC50 ([4]; read-out: PI3K δ In Vitro IC50): < 10 µM
CN1CCN(C2CCN(c3cnc4ccc(-c5ccc6oc(N)nc6c5)cc4n3)CC2)CC1 [compound 227]					IC50 [1, 8]: < 10 µM; IC50 [2, 9]: < 0.1 µM; IC50 [5, 11]: < 1 µM; IC50 ([4]; in vitro, read-out: PI3K δ IC50): < 0.1 µM
CC1CN(c2cnc3ccc(-c4ccc5oc(N)nc5c4)cc3n2)CC(C)N1 (stereo not shown) [compound 131]	< 1 µM	< 1 µM		< 1 µM	IC50 ([4]; read-out: PI3K δ IC50): < 1 µM

The next lines start with results.

IC50 ([1]; read-out: PI3K γ IC50)	IC50 ([2]; read-out: PI3K α IC50)	IC50 [3, 6]	IC50 ([5]; read-out: PI3K β IC50)	Compound	further results
< 1 µM	< 0.1 µM	< 10 µM		CN1CCN(c2ccc(-c3cnc4ccc(-c5ccc6oc(N)nc6c5)cn34)cn2)CC1 [compound 42]	IC50 ([4]; read-out: PI3K δ IC50): < 1 µM
	< 0.1 µM	< 10 µM	< 10 µM	CC(C)N1CCN(C(=O)c2cnc3ccc(-c4ccc5oc(N)nc5c4)cn23)CC1 [compound 160]	
		< 1 µM		Nc1nc2cc(-c3ccc4ncc(C(=O)NC5CCC(O)CC5)n4c3)ccc2o1 (stereo not shown) [compound 143]	
< 1 µM	< 0.1 µM	< 10 µM	< 10 µM	Nc1nc2cc(-c3ccc4ncn(CCO)c(=O)c4c3)ccc2o1 [compound 184]	
< 1 µM	< 0.1 µM	< 1 µM	< 1 µM	Nc1nc2cc(-c3ccc4ncc(N5CCNC(=O)C5)nc4c3)ccc2o1 [compound 135]	
